This is an account of results in US20250051321A1, “TRICYCLIC DERIVATIVE AND PREPARATION METHOD THEREFOR AND APPLICATION THEREOF” (SHANGHAI JEMINCARE PHARMACEUTICAL CO., LTD., priority 2021, published 2025).

The target in one test is ATX (Homo sapiens (Human), UniProt Q13822). Nature of the test: ATX enzyme inhibition assay (Amplex UltraRed/choline oxidase/HRP, 16:0 Lyso PC substrate). In kind it is biochemical. The protocol: All compounds were prepared as a 10 mM DMSO stock solution.
Solutions at pH 8.5 and pH 7.5 were prepared respectively with the following formulations:
All compounds, including the positive control compound, were diluted 5-fold from 10 mM to 2 mM with DMSO in the first step. The mixture was then diluted to 100 μM with 1× assay buffer.
3. Separate Detection of Compounds with 1× Assay Buffer at Two pH Values:
a) 5 μL of 10× compound diluent was added to a 384-well plate (Greiner 781209) using a motorized pipette (see the “experimental preparation” step). 5 μL of 1× assay buffer containing 5% DMSO was added to both negative and positive control wells. The plate was centrifuged at 300 rpm for 1 minute at room temperature.
b) 2× ATX ([…]) was prepared with 1× assay buffer, and 25 μL of 2× ATX was added to the plate using a motorized pipette. 25 μL of 1× assay buffer was added to the negative control wells and 25 μL of 2× ATX was added to the positive control wells. The plate was centrifuged at 300 rpm for 1 minute at room temperature.
The plate was incubated at room temperature for 10 minutes.
c) 2.5× working solution containing Amplex UltraRed reagent (125 μM), HRP (2.5 U/mL), choline oxidase (1.25 U/mL), and 16:0 Lyso PC (75 μM) was prepared with 1× assay buffer. 20 μL of 2.5× working solution was added to all reaction wells using a motorized pipette. The plate was centrifuged at 300 rpm for 1 minute at room temperature.
d) The plate was detected by SpectraMax with the following procedures: fluorescence mode; excitation at 550 nm; emission at 590 nm; kinetics; read once every 2 minutes; read continuously for 60 minutes.
The calculation formula of % inhibition (i.e., % inhibition rate) was as follows: […]
V0: X-axis is taken as 0 to 30 minutes, Y-axis is taken as fluorescence readings, and the slope corresponding to the straight line fitted by the software GraphPad Prism 8 is the initial response rate.
V0max: Average V0 of the positive control wells in the plate.
V0min: Average V0 of the negative control wells in the plate.
The IC50 of the compounds was calculated from a nonlinear regression line (dose-initial response rate) fitted by % inhibition and log value of compound concentration using the software GrahPad Prism 8.

The subject of test [1] is plasma LPA 18:1 and LPA 18:2. Put plainly: Human plasma ex vivo assay (LPA 18:1 / 18:2 by LC-MS/MS). The following applies: 37° C., 2 hours. The test is classed as biochemical. The procedure:
The collected plasma was centrifuged at 4000 rpm for 15 minutes at 4° C. The supernatant was aliquoted into a 96-well plate (25 μL per well), sealed, and frozen at −80° C. for further use.
LPA 17:0 powder was dissolved in a mixed solution of water: isopropanol: formic acid (1:1:1) to a final concentration of […]. The mixture was aliquoted and frozen at −20° C.
1 volume of formic acid was added to 1000× methanol, mixed well, and stored at 4° C. a) The 96-well plate containing frozen plasma was removed from the −80° C. freezer and thawed on ice at room temperature. b) 6 μL of 50× LPA 17:0 (internal standard) and 264 μL of 0.1% FA were added to a clean well of the 96-well plate; the final concentration of LPA 17:0 (internal standard) was 50 nM. c) 6× compound was 1:3 serially diluted to a total of 8 concentrations, and 5 μL of the compound per well was added to the 96-well plate containing plasma. The maximum final concentration of the compound was 10 μM, and the final concentration of DMSO was 0.1%. The plate was centrifuged at 300 rpm for 30 seconds. The DMSO control sample reacted for 0 hours was used as the minimum value (Min), and the DMSO control sample reacted for 2 hours was used as the maximum value (Max). […]
d) The DMSO sample reacted for 0 hours was rapidly transferred to 0.1% FA solution containing the internal standard in step b) to terminate the reaction and precipitate plasma proteins. e) The 96-well plate containing plasma and compounds was rapidly incubated in a 37° C. incubator for 2 hours. After the incubation, 6 μL of 10× LPA 17:0 and 264 μL of 0.1% FA were added to each well to terminate the reaction and precipitate plasma proteins. […]
f) All the samples were mixed well with a pipette, and centrifuged at 4000 rpm for 10 minutes at 4° C. 150 μL of the supernatant was added to a 96-well U-bottom plate (Thermo 267245), sealed with silica gel, and then loaded. The contents of LPA 18:1 and LPA 18:2 in the samples were detected by LC-MS/MS system.
LPA 18:1(or 18:2) relative content=LPA 18:1(or 18:2) peak area/LPA 17:0 peak area Percentage reduction (%) in plasma LPA18:1(or 18:2)=(Max−X)/(Max−Min)*100 Max: LPA 18:1 (or 18:2) relative content of the DMSO sample reacted for 2 hours Min: LPA 18:1 (or 18:2) relative content of the DMSO sample reacted for 0 hours X: LPA 18:1 (or 18:2) relative content of the sample after compound treatment for 2 hours The IC50 of the compounds was calculated by fitting a nonlinear regression through percentage reduction in plasma LPA 18:1 (or 18:2) and log value of compound concentration using the software GraphPad Prism 8.
Y=Bottom+(Top−Bottom)/(1+10^((Log IC50−X)*Hill Slope))

[2] abbreviates: assay buffer pH 8.5, read-out: IC50 (nM) pH 8.5.
[3] abbreviates: LPA 18:1, read-out: Human plasma ex vivo assay IC50 (18:1 LPA).
Where [4] appears, read: LPA 18:2, read-out: Human plasma ex vivo assay IC50 (18:2 LPA).

Each structure is given as a SMILES string. Where two headings read alike, the source gives them in different places.

By IC50 is commonly meant the midpoint of a concentration-inhibition curve.

For `CN(c1nc(-c2ccc(F)cc2)c(C#N)s1)c1c2c(nc3c(F)cc(N4CC5(CN(C(=O)[C@H]6CCOC6)C5)C4)cc13)[C@@H](O)CC2` (single isomer, unassigned) [Example E5-b], on ATX (setting [2]), the IC50 amounted to 23.7 nM.
Regarding `C[C@@H]1CN(CC(=O)N2CC(O)C2)CCN1c1cc(F)c2nc3c(c(N(C)c4nc(-c5ccc(F)cc5)c(C#N)s4)c2c1)CC[C@@H]3O` (single isomer, unassigned) [Example E6-a], on ATX (setting [2]), the IC50 is 18.3 nM.
On the same count and under the same terms, to `C[C@H]1CN(CC(=O)N2CC(O)C2)CCN1c1cc(F)c2nc3c(c(N(C)c4nc(-c5ccc(F)cc5)c(C#N)s4)c2c1)CC[C@H]3O` (single isomer, unassigned) [Example E7-b] belongs 18.9 nM; to `C[C@H]1CN(c2cc(F)c3nc4c(c(N(C)c5nc(-c6ccc(F)cc6)c(C#N)s5)c3c2)CC[C@H]4O)CCN1CC(=O)N1CC(O)C1` (single isomer, unassigned) [Example E8-b], 19.4 nM.
The same measure, in the same setting: to `CN(c1nc(-c2ccc(F)cc2)c(C#N)s1)c1c2c(nc3c(F)cc(N4CC5(CN(C(=O)[C@@H]6CCOC6)C5)C4)cc13)[C@H](O)CC2` (single isomer, unassigned) [Example E13-b] belongs 20.2 nM; to `CN(c1nc(-c2ccc(F)cc2)c(C#N)s1)c1c2c(nc3c(F)cc(N4CC5(CN(C(=O)C6CCOCC6)C5)C4)cc13)[C@@H](O)CC2` (single isomer, unassigned) [Example E14-a], 16.6 nM; to `CN(c1nc(-c2ccc(F)cc2)c(C#N)s1)c1c2c(nc3c(F)cc(N4CC5(CN(C(=O)C6CCOCC6)C5)C4)cc13)[C@H](O)CC2` (single isomer, unassigned) [Example E14-b], 14.7 nM.
For the molecule `CN(c1nc(-c2ccc(F)cc2)c(C#N)s1)c1c2c(nc3c(F)cc(N4CC5(CN(C(=O)C6(O)CCOCC6)C5)C4)cc13)[C@H](O)CC2` (single isomer, unassigned) [Example E15-b], the IC50 on ATX (setting [2]) turned out to be 18.5 nM.
As for `CN(c1nc(-c2ccc(F)cc2)c(C#N)s1)c1c2c(nc3c(F)cc(N4CC5(CN(C(=O)C(C)(C)O)C5)C4)cc13)[C@H](O)CC2` (single isomer, unassigned) [Example E16-b], the IC50 on ATX (setting [2]) came out at 23 nM.
On the same count and under the same terms, to `CN(c1nc(-c2ccc(F)cc2)c(C#N)s1)c1c2c(nc3c(F)cc(N4CC5(CN(C(=O)N6CCCC6)C5)C4)cc13)[C@@H](O)CC2` (single isomer, unassigned) [Example E17-a] belongs 22.4 nM; to `CN(c1nc(-c2ccc(F)cc2)c(C#N)s1)c1c2c(nc3c(F)cc(N4CC5(CN(C(=O)N6CCCC6)C5)C4)cc13)[C@H](O)CC2` (single isomer, unassigned) [Example E17-b], 21.5 nM; to `CN1CC[C@H](C(=O)N2CC3(C2)CN(c2cc(F)c4nc5c(c(N(C)c6nc(-c7ccc(F)cc7)c(C#N)s6)c4c2)CC[C@@H]5O)C3)C1` (single isomer, unassigned) [Example E18-a], 23.4 nM.
Turning to `CN1CC[C@H](C(=O)N2CC3(C2)CN(c2cc(F)c4nc5c(c(N(C)c6nc(-c7ccc(F)cc7)c(C#N)s6)c4c2)CC[C@H]5O)C3)C1` (single isomer, unassigned) [Example E18-b], on ATX (setting [2]), the IC50 was determined as 37.1 nM.
On the same count and under the same terms, for `CN(c1nc(-c2ccc(F)cc2)c(C#N)s1)c1c2c(nc3c(F)cc(N4CC5(CN(C(=O)[C@@H]6COC[C@H]6O)C5)C4)cc13)[C@@H](O)CC2` (single isomer, unassigned) [Example E20-a] the value was 18.1 nM; for `CN(c1nc(-c2ccc(F)cc2)c(C#N)s1)c1c2c(nc3c(F)cc(N4CC5(CN(C(=O)[C@@H]6COC[C@H]6O)C5)C4)cc13)[C@H](O)CC2` (single isomer, unassigned) [Example E20-b], 17 nM; for `CN(c1nc(-c2ccc(F)cc2)c(C#N)s1)c1c2c(nc3c(F)cc(N4CC5(CN(C(=O)[C@H]6COC[C@@H]6O)C5)C4)cc13)[C@@H](O)CC2` (single isomer, unassigned) [Example E20-c], 25.7 nM.
Turning to `CN(c1nc(-c2ccc(F)cc2)c(C#N)s1)c1c2c(nc3c(F)cc(N4CC5(CN(C(=O)[C@H]6COC[C@@H]6O)C5)C4)cc13)[C@H](O)CC2` (single isomer, unassigned) [Example E20-d], at ATX (setting [2]), the half-maximal inhibitory concentration (IC50) came out at 29.2 nM.
For `CN(c1nc(-c2ccc(F)cc2)c(C#N)s1)c1c2c(nc3c(F)cc(N4CCN(CC(=O)N5CC(O)C5)CC4)cc13)C(O)CC2` (centres unmarked) [E1-1], the IC50 on ATX (setting [2]) was found to be 21.3 nM.
Turning to `N#Cc1cc(Br)cc(F)c1NC1=CCCC1=O` [E1-2], the half-maximal inhibitory concentration (IC50) at ATX (setting [2]) was 18.2 nM.
Regarding `CN(c1nc(-c2ccc(F)cc2)c(C#N)s1)c1c2c(nc3c(F)cc(N4CCN(CC(=O)N5CC(F)(F)C5)CC4)cc13)CCC2` [Example A15], the IC50 at ATX (assay buffer pH 7.5, read-out: IC50 (nM) pH 7.5) turned out to be 656 nM; at ATX (setting [2]), 134 nM.
Take `CN(c1nc(-c2ccc(F)cc2)c(C#N)s1)c1c2c(nc3c(F)cc(N4CC5(CN(CC(=O)N6CC(O)C6)C5)C4)cc13)CCO2` [Example A23]: at ATX (setting [2]), the IC50 stood at 75.3 nM.
The same measure, in the same setting: to `CN(c1nc(-c2ccc(F)cc2)c(C#N)s1)c1c2c(nc3c(F)cc(N4CCN(CC(=O)N5CC(O)C5)CC4)cc13)CCCC2` [Example A27] belongs 111 nM.
Take `CN(c1nc(-c2ccc(F)cc2)c(C#N)s1)c1c2c(nc3c(F)cc(N4CC5(CN(C(=O)C6(C)CCOC6)C5)C4)cc13)C(O)CC2` (centres unmarked) [Example E59]: the half-maximal inhibitory concentration (IC50) turned out to be 0.24 µM in test [1] (setting [3]) and 0.405 µM in test [1] (setting [4]).
In the same order, the values of `CN(c1nc(-c2ccc(F)cc2)c(C#N)s1)c1c2c(nc3c(F)cc(N4CC5(CN(C(=O)C6CCCC6)C5)C4)cc13)C(O)CC2` (centres unmarked) [Example E60] are 0.462 µM and 0.448 µM.
In the same order, the values of `CN(c1nc(-c2ccc(F)cc2)c(C#N)s1)c1c2c(nc3c(F)cc(N4CC5(CN(C(=O)[C@H]6CCCO6)C5)C4)cc13)C(O)CC2` (some centres unmarked) [Example E61] are 0.583 µM and 0.839 µM.
In the same order, the values of `CN(c1nc(-c2ccc(F)cc2)c(C#N)s1)c1c2c(nc3c(F)cc(N4CC5(CN(C(=O)C6CCC(=O)O6)C5)C4)cc13)C(O)CC2` (centres unmarked) [Example E62] are 0.332 µM and 0.576 µM.
Regarding `CN(c1nc(-c2ccc(F)cc2)c(C#N)s1)c1c2c(nc3c(F)cc(N4CC5(CN(C(=O)C(C)(C)O)C5)C4)nc13)C(O)CC2` (centres unmarked) [Example E65], the IC50 in test [1] (setting [3]) was found to be 0.369 µM; in test [1] (setting [4]), 0.496 µM.
Take `CCc1nc2c(C)cc(N3CCN(CC(=O)N4CC(O)C4)CC3)cn2c1N(C)c1nc(-c2ccc(F)cc2)c(C#N)s1` [GLPG1690, reference compound]: the IC50 in test [1] (setting [3]) amounted to 0.465 µM; in test [1] (setting [4]), 0.464 µM.
